Ends that are not written are not given here.

On to “KLALKLALKALKAALKLAGAYGRKKRRQRRRAFSVDAETLWR-NH2 [KLAL-TAT-[barcode82]]”, for which the mean cytoplasmic abundance in the data set on HEK293T cells is recorded as 31 millions of molecules/cell; in the data set on Kasumi-1 cells it was 15 millions of molecules/cell; with HUVEC cells, 0 millions of molecules/cell.

On to “RLALRLALRALRAALRLAGCYGRKKRRQRRR [RLAL-TAT-[barcode108]]”, for which, in the data set on Huh-7 cells, the “change of nuclear accumulation after 24 hours of cell exposure” value was “time-dependent increase in nuclear accumulation” and the mean nuclear abundance was 196 millions of molecules/cell.

Source of the values: article PMC11770985 (Journal of proteome research, 2024).
